Test results reported in patent US12377079B2, “Antibacterial compounds and uses thereof” (The Children's Medical Center Corporation, priority 2018, dated 2025).
Converted amounts (≈) assume the structure as drawn. “Also recorded” adds a separate entry of the source. Where two headings read alike, the source gives them in different places.

What was measured:
[1] = system: E. coli urine isolate EC236; assay: Minimum inhibitory concentration (MIC); conditions: Escherichia coli, read-out: Minimum inhibitory concentration (MIC)
K. pneumoniae Kp233 = assay: Minimum inhibitory concentration (MIC); conditions: for MIC: Klebsiella pneumoniae
P. aeruginosa PA01 = assay: Minimum inhibitory concentration (MIC); conditions: for Minimum inhibitory concentration (MIC): P. aeruginosa PA01, PAβN + (40 μg/mL); for MIC: Pseudomonas aeruginosa, PA01, read-out: Minimum inhibitory concentration (MIC)
[2] = system: E. coli urine isolate EC235; assay: Minimum inhibitory concentration (MIC); conditions: Escherichia coli, read-out: Minimum inhibitory concentration (MIC)
[3] = system: CR-K. pneumoniae (ATCC BAA-1705); assay: Minimum inhibitory concentration (MIC); conditions: for Minimum inhibitory concentration (MIC): CR-K. pneumoniae ATCC BAA-1705, PAβN + (40 μg/mL); for MIC: Klebsiella pneumoniae
K. pneumoniae (Kp233) [4] = assay: Morphometric analysis by phase contrast microscopy; type: cell-based, Klebsiella pneumoniae; conditions: stationary phase cells, 4 hr; compounds 100 μl/mI alone or with PAβN, ampicillin 150 μg/mL
Experimental: (§1) Morphometric analysis. Carbapenem-susceptible Kp233 were treated as described for stationary phase viability assays, with the exception that negative control wells contained no DMSO and no antimicrobials. Ampicillin (150 μg/mL) was used as a positive control. Cells were incubated statically at 37° C. for 4 hr. Thirty μL from each well was transferred into a 24-well plate filled with 300 μL of LB broth. Images were captured with a 40× magnification lens using a Nikon Eclipse TE2000-E microscope. Morphometric analysis was carried out using IPLab 4.0 software.

resistant GNR = assay: MIC with and without efflux pump inhibitor PAβN, resistant GNR as a group
Group A streptococcus = assay: Minimum inhibitory concentration (MIC); conditions: read-out: Minimum inhibitory concentration (MIC)
Kp233/pJBA110 = assay: GFP fluorescence assay (protein synthesis); conditions: 15 hr
[5] = system: K. pneumoniae strain BAA-1705; assay: High-throughput screen / dose-response based on mannose fermentation; conditions: for Inhibition of mannose fermentation: 22 hours, pH-DM, concentrations similar to primary and cherry-pick screens
[6] = Particulate matter in aqueous media (micrographs); type: physicochemical; conditions: 100 μg/mL in culture medium
Experimental: as §1

HeLa S3 cells = assay: Alamar Blue assay for cytotoxicity; type: cell-based, human; conditions: 20 hours
Experimental: Alamar Blue assay for cytotoxicity. HeLa S3 cells were cultured in Dulbecco's modified Eagle medium supplemented with 10% fetal bovine serum, 100 U/mL penicillin, and 100 μg/mL streptomycin. Each well of a 96-well microtiter plate (Nunclon Delta Surface, Thermo Scientific) was seeded with 10,000 cells in 100 μL of culture medium. Cells were incubated for 18 hr in a humidified incubator at 37° C. with 5% CO2 to allow attachment. Compounds were added to the adherent cells to yield a final concentration of 13 and 107 μg/mL. Positive control wells contained 0.1% Triton X-100, carrier control wells contained DMSO, and negative control wells contained medium and cells without DMSO. After addition of compounds, 0.1% Triton, or DMSO, plates were returned to the incubator. Cell viability was measured by resazurin reduction. Alamar Blue reagent (Invitrogen) was added to the cells after a 1.5 hr incubation with the test compounds. Cells were incubated for 20 hr, and then fluorescence was measured using the Infinite 200 (Tecan) with excitation and emission wavelengths of 550 nm and 590 nm, respectively. To calculate viability, the average fluorescence value of Triton-treated positive control wells was subtracted from that of untreated wells or wells containing test compounds. These values were then divided by the average fluorescence of untreated wells to give cell viability as a percentage of the negative control.

MRSA = assay: Minimum inhibitory concentration (MIC); conditions: Staphylococcus aureus, read-out: Minimum inhibitory concentration (MIC)
A. baumanii = assay: Minimum inhibitory concentration (MIC); conditions: for Minimum inhibitory concentration (MIC): A. baumanii, PAβN + (40 μg/mL); for MIC: Acinetobacter baumannii, read-out: Minimum inhibitory concentration (MIC)
[7] = system: CR K. pneumoniae strain BAA-1705; assay: Dose-response growth inhibition (viable cell counts in LB broth); conditions: 22 hr in LB broth, concentrations tested 0.78-50 μg/mL
K. pneumoniae (Kp233) [8] = assay: Compound impact on bacterial viability (exponential and stationary phase); type: cell-based, Klebsiella pneumoniae; conditions: 4 hr; for Bacterial viability (CFU) with efflux pump inhibition: 100 μg/mL compound + PAβN 40 μg/ml
Experimental: Compound impact on bacterial viability. […] One hundred μL of each compound preparation was dispensed into the wells of a microtiter plate. Negative (untreated) wells contained LB with or without PAβN only. Stationary phase cell viability. A glycerol stock of the carbapenem-susceptible clinical strain of K. pneumoniae (Kp233) was inoculated into 1.5 mL of LB and incubated overnight (approximately 18 hr) at 37° C. with shaking. […] Cells were incubated statically at 37° C. for 4 hr, and viable counts were determined by plating. Exponential phase cell viability. Overnight cultures of Kp233 were diluted 1:5,000 into 50 mL of LB broth and incubated at 37° C. with shaking at 200 rpm. […] These cells were also washed twice with NS and inoculated into the wells of a microtiter plate prepared as described above. Cells were incubated statically at 37° C. for 4 hr, and viable counts were determined by plating.

Glut1 = target: T1, Glut1 (Homo sapiens, UniProt P11166); conditions: high-throughput screen, PubChem BioAssay; cited from earlier work
T1 sequence (P11166 1-492): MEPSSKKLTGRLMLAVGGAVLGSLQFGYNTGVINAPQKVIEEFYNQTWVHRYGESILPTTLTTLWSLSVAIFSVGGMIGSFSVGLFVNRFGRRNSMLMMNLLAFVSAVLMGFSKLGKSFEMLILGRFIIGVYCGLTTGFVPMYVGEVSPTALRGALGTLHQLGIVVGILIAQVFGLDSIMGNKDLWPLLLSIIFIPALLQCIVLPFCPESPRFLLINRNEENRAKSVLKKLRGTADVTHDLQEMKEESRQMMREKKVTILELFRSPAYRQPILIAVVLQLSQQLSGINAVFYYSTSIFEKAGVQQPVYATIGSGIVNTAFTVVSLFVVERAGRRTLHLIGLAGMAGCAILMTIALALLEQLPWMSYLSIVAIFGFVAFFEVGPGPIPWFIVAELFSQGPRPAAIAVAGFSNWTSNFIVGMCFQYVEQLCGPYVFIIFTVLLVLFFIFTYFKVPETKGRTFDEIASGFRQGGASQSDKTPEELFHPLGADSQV

LmGT2 = LmGT2 (Leishmania mexicana, UniProt O61059); conditions: high-throughput screen, PubChem BioAssay; cited from earlier work
Lassa virus entry = conditions: PubChem BioAssay; cited from earlier work
[9] = system: S. aureus teichoic acid biosynthesis; conditions: secondary screens, after a hit in the primary screen; cited from earlier work
[10] = target: Human tyrosyl-DNA phosphodiesterase 1 (TDP1) (Homo sapiens, UniProt Q9NUW8); conditions: PubChem BioAssay; cited from earlier work
[11] = KP233, read-out: Minimum inhibitory concentration (MIC)
[12] = ATCCBAA1705, read-out: Minimum inhibitory concentration (MIC)
[13] = highest concentration used (100 μg/mL)
[14] = exponential and stationary phase
[15] = higher concentration (107 μg/mL)

Sequence of Human tyrosyl-DNA phosphodiesterase 1 (TDP1) (Q9NUW8 whole entry): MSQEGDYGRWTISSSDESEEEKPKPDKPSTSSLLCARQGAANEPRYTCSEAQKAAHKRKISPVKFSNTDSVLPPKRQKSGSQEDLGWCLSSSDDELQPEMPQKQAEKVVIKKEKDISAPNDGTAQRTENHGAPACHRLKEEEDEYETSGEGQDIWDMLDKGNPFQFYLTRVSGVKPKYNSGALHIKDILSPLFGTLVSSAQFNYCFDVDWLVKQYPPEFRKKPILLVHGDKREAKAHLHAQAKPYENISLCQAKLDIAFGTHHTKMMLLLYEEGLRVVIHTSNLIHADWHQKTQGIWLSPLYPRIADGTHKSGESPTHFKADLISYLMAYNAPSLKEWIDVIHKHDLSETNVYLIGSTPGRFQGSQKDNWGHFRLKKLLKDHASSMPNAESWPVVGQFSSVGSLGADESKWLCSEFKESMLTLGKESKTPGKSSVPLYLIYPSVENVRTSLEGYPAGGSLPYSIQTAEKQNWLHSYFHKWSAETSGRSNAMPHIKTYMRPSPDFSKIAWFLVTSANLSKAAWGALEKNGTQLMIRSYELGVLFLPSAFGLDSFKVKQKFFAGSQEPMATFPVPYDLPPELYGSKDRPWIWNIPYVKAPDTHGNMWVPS
Sequence of LmGT2 (O61059 entry or part of it): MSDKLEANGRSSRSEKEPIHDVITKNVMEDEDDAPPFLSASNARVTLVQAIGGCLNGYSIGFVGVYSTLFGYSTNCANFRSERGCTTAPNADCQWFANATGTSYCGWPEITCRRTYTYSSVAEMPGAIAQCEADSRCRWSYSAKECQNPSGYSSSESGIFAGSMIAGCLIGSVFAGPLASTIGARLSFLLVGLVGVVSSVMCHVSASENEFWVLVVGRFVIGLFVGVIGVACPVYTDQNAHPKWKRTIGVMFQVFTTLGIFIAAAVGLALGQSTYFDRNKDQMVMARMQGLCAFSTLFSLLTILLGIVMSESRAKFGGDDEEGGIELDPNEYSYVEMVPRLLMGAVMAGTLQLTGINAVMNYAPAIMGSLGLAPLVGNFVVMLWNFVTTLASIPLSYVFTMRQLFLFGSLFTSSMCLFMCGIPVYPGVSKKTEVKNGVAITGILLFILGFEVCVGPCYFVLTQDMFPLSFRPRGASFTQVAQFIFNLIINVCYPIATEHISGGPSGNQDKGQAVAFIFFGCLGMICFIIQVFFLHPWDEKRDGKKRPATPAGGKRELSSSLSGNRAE

Molecule	MIC [1]	MIC (K. pneumoniae Kp233; [11])	Minimum inhibitory concentration (MIC) (P. aeruginosa PA01)	MIC (P. aeruginosa PA01)	MIC [2]	Minimum inhibitory concentration (MIC) [3]	MIC [3, 12]	Cell shape / average particle size (K. pneumoniae (Kp233) [4])	MIC (Group A streptococcus)	Particulate matter in micrographs (insolubility in aqueous media) [6]	Toxicity to HeLa S3 cells (viability by resazurin reduction) (HeLa S3 cells; 13 and 107 μg/mL)	MIC (MRSA)	Minimum inhibitory concentration (MIC) (A. baumanii)	MIC (A. baumanii)	further results
C[C@H]1COc2c(N3CCN(C)CC3)c(F)cc3c(=O)c(C(=O)O)cn1c23 [Lev, levofloxacin, reference compound]	0.015 µg/mL (≈ 0.0415 µM)	0.031 µg/mL (≈ 0.0858 µM)	0.015 µg/mL	0.25 µg/mL (≈ 0.692 µM)	0.015 µg/mL (≈ 0.0415 µM)										Reduction of MIC by PAβN (P. aeruginosa PA01; P. aeruginosa, with PAβN versus without): 16 fold
O=C(N[C@H](CO)[C@H](O)c1ccc([N+](=O)[O-])cc1)C(Cl)Cl [Cm, chloramphenicol, reference compound]	< 9 µg/mL	< 9 µg/mL			< 9 µg/mL	39 µg/mL	1250 µg/mL (≈ 3870 µM)								Reduction of MIC by PAβN ([3]; K. pneumoniae, with PAβN versus without): 32 fold
Cc1nnc(SCC2=NN(c3nc4ccccc4[nH]3)C(=O)C2)s1 [Compound C17]	96 µg/mL (≈ 279 µM)	48 µg/mL (≈ 139 µM)	48 µg/mL	> 96 µg/mL	96 µg/mL (≈ 279 µM)	48 µg/mL	96 µg/mL (≈ 279 µM)	do not significantly alter cell shape	96 µg/mL (≈ 279 µM)	not	least toxic; also recorded: not toxic	24 µg/mL (≈ 69.7 µM)	24 µg/mL	> 96 µg/mL	Change of MIC on addition of PAβN (in words) (resistant GNR): minimally decreased; Bacterial growth (OD) and GFP fluorescence (Kp233/pJBA110; [13]): decreased both bacterial growth and protein synthesis; Inhibition of mannose fermentation [5]: inhibited fermentation; Activity in cherry-pick re-test ([5]; dispensed by HP D300 digital dispenser): significant activity; Growth inhibition (CFU/ml) [7]: inhibited growth
phenylalanine-arginine β-naphthylamide [PAβN, reference compound]															Bacterial viability (CFU) (K. pneumoniae (Kp233) [8]; PAβN 40 μg/mL alone, exponential or stationary phase): did not decrease the viability
CC1(C)S[C@@H]2[C@H](NC(=O)[C@H](N)c3ccccc3)C(=O)N2[C@H]1C(=O)O [ampicillin, reference compound]								formed filaments with significantly increased average particle size							
Clc1cc(Br)ccc1-c1ccc(CNCC2CCNCC2)o1 [Compound O06]	96 µg/mL (≈ 250 µM)	96 µg/mL (≈ 250 µM)	24 µg/mL	> 96 µg/mL	96 µg/mL (≈ 250 µM)	96 µg/mL	96 µg/mL (≈ 250 µM)	do not significantly alter cell shape	48 µg/mL (≈ 125 µM)	not	most toxic	48 µg/mL (≈ 125 µM)	24 µg/mL	48 µg/mL (≈ 125 µM)	Change of MIC on addition of PAβN (in words) (resistant GNR): minimally decreased; Activity in screen for Glut1 inhibitors (Glut1): active; Activity in screen for LmGT2 inhibitors (LmGT2): active; Bacterial growth (OD) and GFP fluorescence (Kp233/pJBA110; [13]): decreased both bacterial growth and protein synthesis; Inhibition of mannose fermentation [5]: inhibited fermentation; Bacterial viability (CFU) with efflux pump inhibition (K. pneumoniae (Kp233) [8]; [14]): significantly potentiated the killing activity; also recorded: significantly decrease the viability; Bacterial viability (CFU) (K. pneumoniae (Kp233) [8]; 100 μg/mL compound alone, exponential and stationary phase): decreased the viability
O=C1C=C2C(=CCOC2O)O1 (centres unmarked) [patulin, reference compound]															Minimum inhibitory concentration (K. pneumoniae Kp233; K. pneumoniae Kp233, Defined Medium): 9.38 µg/mL (≈ 60.9 µM); MIC (K. pneumoniae Kp233; KP233, read-out: Minimum inhibitory concentration): 9.38 µg/mL (≈ 60.9 µM); MIC ([3]; ATCCBAA1705, read-out: Minimum inhibitory concentration, CR-K. pneumoniae ATCC BAA-1705, Defined Medium): 9.38 µg/mL (≈ 60.9 µM); MIC ([3]; ATCCBAA1705, read-out: Minimum inhibitory concentration, CR-K. pneumoniae ATCC BAA-1705, LB broth (rich medium)): 18.8 µg/mL (≈ 122 µM)
Cc1nn2c(=O)cc(-c3ccc(F)cc3)[nH]c2c1-c1ccccc1 [Compound F02]															Toxicity to HeLa S3 cells (viability by resazurin reduction) (HeLa S3 cells; [15]): moderately toxic
Cc1nn2c(=O)cc(-c3ccc(Cl)cc3)[nH]c2c1-c1ccccc1 [Compound N08]	> 96 µg/mL	> 96 µg/mL	12 µg/mL	> 96 µg/mL	> 96 µg/mL	6 µg/mL	> 96 µg/mL	do not significantly alter cell shape	> 96 µg/mL	particulate matter was observed	minimal toxicity	< 0.75 µg/mL	1.5 µg/mL	> 96 µg/mL	Reduction of MIC by addition of PAβN (resistant GNR): 1-2 logs; Inhibition of Lassa virus entry (screen) (Lassa virus entry): flagged; Bacterial growth (OD) and GFP fluorescence (Kp233/pJBA110; low concentrations): interfered with GFP fluorescence but not growth; Inhibition of teichoic acid biosynthesis [9]: not found to have this activity; Bacterial viability (CFU) with efflux pump inhibition (K. pneumoniae (Kp233) [8]; [14]): significantly potentiated the killing activity; also recorded: significantly decrease the viability; Toxicity to HeLa S3 cells (viability by resazurin reduction) (HeLa S3 cells; [15]): moderately toxic; Inhibition of TDP1 (screen) [10]: flagged
